How the values were obtained:
GST-GRP1-PH = biological target: T1, GST-GRP1-PH (Homo sapiens, UniProt O43739); assay: Competitive FP assay, displacement of fluorescent tracer from GST-GRP1-PH; type: binding; settings: amounts over 100-fold greater than PI(3,4,5)P3
T1 construct: The PH domain of GRP1 (general receptor for phosphoinositides) was used as a detector for PI(3,4,5)P3
T1 sequence (O43739 264-381 limits assumed): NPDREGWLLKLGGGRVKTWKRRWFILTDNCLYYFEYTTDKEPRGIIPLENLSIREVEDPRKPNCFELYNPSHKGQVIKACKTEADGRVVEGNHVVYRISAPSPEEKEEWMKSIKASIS
Protocol: In order to use these reagents in a competitive FP assay, unlabeled phosphoinositide products of an enzymatic reaction must be able to successfully compete with the labeled tracer for interaction with the binding proteins. In addition, the level of cross-reactivity of binding proteins with the phosphoinositides used as enzyme substrates should be minimal. To examine the suitability of these phosphoinositide binding proteins for this application, competition assays were performed using optimal amounts of lipid binding proteins and fluorescent tracers, mixed with increasing amounts of diC8-phosphoinositide competitors.
The sensitivity of this approach for detecting conversion of PI(4,5)P2 to PI(3,4,5)P3 was evaluated using GST-GRP1-PH protein and FAM and BODIPY®-TMR labeled tracers. Competition assays in which both diC8-PI(3,4,5)P3 and diC8-PI(4,5)P2 were added at increasing concentrations were performed.

recombinant PI 3-Kinaseα = recombinant PI 3-Kinaseα (Homo sapiens, UniProt P42336); assay: Competitive FP assay for PI 3-Kinase activity; type: biochemical; settings: substrate conversion at constant enzyme levels
Chain of recombinant PI 3-Kinaseα (P42336 whole entry): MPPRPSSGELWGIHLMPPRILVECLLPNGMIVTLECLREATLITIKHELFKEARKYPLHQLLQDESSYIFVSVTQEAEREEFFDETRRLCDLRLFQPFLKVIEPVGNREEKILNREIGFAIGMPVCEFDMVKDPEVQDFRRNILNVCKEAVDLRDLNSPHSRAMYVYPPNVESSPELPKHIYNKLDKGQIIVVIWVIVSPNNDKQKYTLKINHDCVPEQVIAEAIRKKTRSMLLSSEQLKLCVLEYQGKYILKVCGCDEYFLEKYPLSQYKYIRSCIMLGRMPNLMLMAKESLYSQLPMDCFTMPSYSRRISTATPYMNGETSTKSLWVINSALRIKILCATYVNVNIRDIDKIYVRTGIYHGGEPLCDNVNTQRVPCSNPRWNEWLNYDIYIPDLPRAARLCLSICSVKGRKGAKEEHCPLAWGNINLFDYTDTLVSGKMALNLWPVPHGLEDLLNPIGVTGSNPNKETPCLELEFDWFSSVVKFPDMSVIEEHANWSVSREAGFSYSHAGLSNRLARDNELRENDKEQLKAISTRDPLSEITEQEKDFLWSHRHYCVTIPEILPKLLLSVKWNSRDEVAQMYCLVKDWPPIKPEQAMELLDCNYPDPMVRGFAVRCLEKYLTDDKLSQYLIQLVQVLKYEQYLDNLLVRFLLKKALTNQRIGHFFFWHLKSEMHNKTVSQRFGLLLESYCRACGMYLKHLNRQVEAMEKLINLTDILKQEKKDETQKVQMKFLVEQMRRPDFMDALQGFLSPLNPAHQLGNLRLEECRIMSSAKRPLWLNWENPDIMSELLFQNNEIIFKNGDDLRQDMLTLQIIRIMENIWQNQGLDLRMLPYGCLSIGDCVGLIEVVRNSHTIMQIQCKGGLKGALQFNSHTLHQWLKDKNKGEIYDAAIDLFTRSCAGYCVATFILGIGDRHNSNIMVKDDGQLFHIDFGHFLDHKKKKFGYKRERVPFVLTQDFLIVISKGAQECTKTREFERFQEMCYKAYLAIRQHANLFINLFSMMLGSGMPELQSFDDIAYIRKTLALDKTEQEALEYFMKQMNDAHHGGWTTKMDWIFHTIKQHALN
Chain of recombinant PI 3-Kinaseα (P27986 whole entry partner): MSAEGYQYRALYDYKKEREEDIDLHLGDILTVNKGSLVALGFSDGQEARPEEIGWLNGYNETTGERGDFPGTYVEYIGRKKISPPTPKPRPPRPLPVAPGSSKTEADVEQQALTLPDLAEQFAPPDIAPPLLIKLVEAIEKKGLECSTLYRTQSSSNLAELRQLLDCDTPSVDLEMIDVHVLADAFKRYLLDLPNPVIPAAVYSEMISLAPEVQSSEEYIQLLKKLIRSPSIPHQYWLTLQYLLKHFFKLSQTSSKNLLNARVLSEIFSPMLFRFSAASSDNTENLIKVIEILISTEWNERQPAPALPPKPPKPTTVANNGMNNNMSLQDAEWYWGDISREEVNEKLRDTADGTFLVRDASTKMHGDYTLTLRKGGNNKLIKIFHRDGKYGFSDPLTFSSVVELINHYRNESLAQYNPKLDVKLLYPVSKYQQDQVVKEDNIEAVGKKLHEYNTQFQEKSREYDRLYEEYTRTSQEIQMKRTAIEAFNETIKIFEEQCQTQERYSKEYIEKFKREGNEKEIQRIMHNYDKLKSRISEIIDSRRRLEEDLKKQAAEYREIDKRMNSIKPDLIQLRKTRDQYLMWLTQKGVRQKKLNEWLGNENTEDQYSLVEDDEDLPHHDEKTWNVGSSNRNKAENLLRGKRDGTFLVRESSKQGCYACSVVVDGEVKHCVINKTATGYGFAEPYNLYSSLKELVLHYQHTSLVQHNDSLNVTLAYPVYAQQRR
Source text: The FP assays developed for the detection of PI 3-Kinase and SHIP2 activity were designed as competitive assays in which the enzyme product would compete with a fluorescently labeled synthetic phosphoinositide or inositol phosphate tracer for binding to a specific phosphoinositide binding protein. As the products of the enzymatic reaction increase, the soluble phosphoinositide products compete for the interaction of the binding protein and the fluorescent tracer, leading to a decrease in mP values as the amount of depolarized free tracer increases. Thus, changes in polarization should be inversely proportional to the degree of enzyme activity.
These assays involve four steps. First, the enzyme and substrate phosphoinositide are combined in an appropriate reaction buffer and the reaction is allowed to proceed. […] Finally, polarization values are measured to determine the extent of enzyme activity in the reaction.
The ability of FP competitive assays to detect the production of phosphoinositide products of PI 3-Kinaseα activity was tested using recombinant PI 3-Kinaseα. […] The production of PI(3,4,5)P3 was detected as a decrease in mP values as enzyme products compete with I(1,3,4,5)P4-BODIPY®-TMR for interaction with the binding protein.

With CCCCCCCC(=O)OC[C@H](COP(=O)(O)O[C@@H]1[C@H](O)[C@H](O)[C@@H](OP(=O)(O)O)[C@H](OP(=O)(O)O)[C@H]1O)OC(=O)CCCCCCC [diC8-PI(4,5)P2] the “effect on interaction of binding protein with fluorescent tracers” value (GST-GRP1-PH) was “minimal effect” and the Km (recombinant PI 3-Kinaseα) was roughly 3 µM.

— US20050009124A1, “Assays for detection of phosphoinositide kinase and phosphatase activity” (Echelon Biosciences Incorporated, priority 2001, published 2005)
